Reference: US9999690B2, “Labeled compounds and methods of imaging, diagnosing cartilage disorders and diseases, and monitoring cartilage health using labeled and unlabeled compounds” (Perosphere Inc., priority 2013, dated 2018)

Key:
[1] = Tissue distribution of radioactivity by Quantitative Whole-Body Autoradiography (QWBA), Group 4; format: in vivo; settings: rat, single IV 2 mg/kg
Procedure: (§1) A study was conducted to determine the pharmacokinetics, rates and routes of excretion with mass baseline and tissue distribution of radioactivity, after a single intravenous dose administration of formula XIII (also referred to as [^14C]DAP) was administered to the rats by tail vein intravenous injection at a
(§2) The study was conducted on 19 male rats divided into 4 groups. The first group of 6 rats was used for blood collection (Group 1); the second group of 4 rats was used for urine, feces, cage rinses and wipes and carcasses collection (Group 2); the third group of 4 rats was used for expired air collection (Group 3); the fourth group of 5 rats was used for terminal blood/serum and tissue distribution by Quantitative Whole-Body Autoradiography (QWBA) (Group 4).
(§3) For Group 4, formula XIII (QWBA was run at 1, 8, 12, 24 and 72 hours post dose. After terminal blood collection, each euthanized animal was frozen in a hexane/dry ice bath and embedded in a 2% carboxymethylcellulose matrix according to MPI Research SOP ADME-112. The embedded carcasses were sectioned according to MPI Research SOP ADME-113 on a Leica CM3600 Cyromacrotome set to maintain −10 to −30° C. At least four fortified quality control standards of known radioactive concentration were placed into the frozen block prior to sectioning and used for section thickness quality control. The quality control standards were sectioned under the same conditions as the specimen. The intrasection and intersection variation of collected sections were determined by analyzing the quality control standards. Section variation must be less than 20% for quantitative analysis. Sections that were approximately 40μm thick were taken in the sagittal plane. Appropriate sections selected at various levels of interest in the block were collected to encompass the following tissues, organs, and biological fluids, where possible: adrenal gland, bladder (urinary) and contents (urine), blood (cardiac), bone, bone marrow, brain, eye, fat (brown), fat (white), heart, kidney, large intestine/cecum and contents, liver, lung, muscle, pancreas, prostate, salivary glands, skin, small intestine and contents, spleen, stomach and contents, testes, thymus, thyroid, mesenteric lymph nodes, and epididymis. A set of sections were mounted, exposed to phosphor imaging screens and scanned using the Storm 860 image acquisition system according to MPI Research SOP ADME-112. Quantification, relative to the calibration standards, were performed by image densitometry using MCID™ image analysis software according to MPI Research SOP ADME-114. A standard curve was constructed from the integrated response (MDC/mm2) and the nominal concentrations of the [^14C]Glucose calibration standards. Relative error should be less than 0.5 for each point on the curve. The concentrations of radioactivity were expressed as μCi/g and were converted to μg or ng-equivalents of DAP per gram of sample (μg- or ng-eq/g) using the specific activity of administered [^14C]DAP dose formulation. A lower limit of quantification (LLOQ) was applied to the data. The LLOQ was determined using the radioactive concentration of the lowest calibration standard used to generate a calibration curve divided by the specific activity of the dose formulation (μCi/ug). Artifacts, such as those produced by dislodged contents of the alimentary canal, were excluded from analysis during image analysis.

[2] = Rat blood PK and blood to serum ratio, Group 4; format: in vivo
Procedure: as §1, §2, §3

[3] = In vivo toxicity study, rats; settings: rat, read-out: Maximum tolerated dose
Procedure: (§4) A study was conducted to test the toxicity of labeled formula XIII in rats and dogs. Maximum tolerated doses were 40 mg/kg for rats and 35 mg/kg for dogs.

[4] = In vivo toxicity study, dogs; settings: dog, read-out: Maximum tolerated dose
Procedure: as §4

[5] = In vivo safety study in humans; settings: intravenous bolus doses up to 200 mg
Procedure: A study was conducted to test the safety profile of labeled formula XIII in humans in intravenous bolus doses up to 200 mg.

[2H]C1([2H])N(CCCNC(=O)[C@@H](N)CCCNC(=N)N)C([2H])([2H])C([2H])([2H])N(CCCNC(=O)[C@@H](N)CCCNC(=N)N)C1([2H])[2H] [formula XIII]
Concentration of Radioactivity in Urine ([1]; 12 Hours): 5011 ng Equivalents [^14C]DAP/g
Concentration of Radioactivity in Bone marrow ([1]; 24 Hours): 1987 ng Equivalents [^14C]DAP/g
Concentration of Radioactivity in Eye (lens) ([1]; 24 Hours): BLQ (Below limit of quantitation (<172 ng equivalents [^14C]PER977/g))
Concentration of Radioactivity in Gastric mucosa ([1]; 24 Hours): 1438 ng Equivalents [^14C]DAP/g
Concentration of Radioactivity in Kidney ([1]; 24 Hours): 39548 ng Equivalents [^14C]DAP/g
Concentration of Radioactivity in Kidney (cortex) ([1]; 24 Hours): 40820 ng Equivalents [^14C]DAP/g
Concentration of Radioactivity in Kidney (medulla) ([1]; 24 Hours): 2011 ng Equivalents [^14C]DAP/g
Concentration of Radioactivity in Large intestinal contents ([1]; 24 Hours): 1801 ng Equivalents [^14C]DAP/g
Concentration of Radioactivity in Small intestine ([1]; 24 Hours): 5090 ng Equivalents [^14C]DAP/g
Concentration of Radioactivity in Spinal cord ([1]; 24 Hours): BLQ (Below limit of quantitation (<172 ng equivalents [^14C]PER977/g))
Concentration of Radioactivity in Stomach contents ([1]; 24 Hours): BLQ (Below limit of quantitation (<172 ng equivalents [^14C]PER977/g))
Concentration of Radioactivity in Thymus ([1]; 24 Hours): 11451 ng Equivalents [^14C]DAP/g
Concentration of Radioactivity in Urinary bladder ([1]; 24 Hours): 606 ng Equivalents [^14C]DAP/g
Concentration of Radioactivity in Urine ([1]; 24 Hours): 4553 ng Equivalents [^14C]DAP/g
Concentration of Radioactivity in Blood ([1]; 72 Hours): BLQ (Below limit of quantitation (<172 ng equivalents [^14C]PER977/g))
Concentration of Radioactivity in Bone ([1]; 72 Hours): BLQ (Below limit of quantitation (<172 ng equivalents [^14C]PER977/g))
Concentration of Radioactivity in Bone marrow ([1]; 72 Hours): 841 ng Equivalents [^14C]DAP/g
Concentration of Radioactivity in Cerebellum ([1]; 72 Hours): BLQ (Below limit of quantitation (<172 ng equivalents [^14C]PER977/g))
Concentration of Radioactivity in Epididymis ([1]; 72 Hours): BLQ (Below limit of quantitation (<172 ng equivalents [^14C]PER977/g))
Concentration of Radioactivity in Kidney ([1]; 72 Hours): 18515 ng Equivalents [^14C]DAP/g
Concentration of Radioactivity in Kidney (cortex) ([1]; 72 Hours): 15748 ng Equivalents [^14C]DAP/g
Concentration of Radioactivity in Kidney (medulla) ([1]; 72 Hours): 556 ng Equivalents [^14C]DAP/g
Concentration of Radioactivity in Large intestinal contents ([1]; 72 Hours): 824 ng Equivalents [^14C]DAP/g
Concentration of Radioactivity in Medulla ([1]; 72 Hours): BLQ (Below limit of quantitation (<172 ng equivalents [^14C]PER977/g))
Concentration of Radioactivity in Muscle ([1]; 72 Hours): BLQ (Below limit of quantitation (<172 ng equivalents [^14C]PER977/g))
Concentration of Radioactivity in Seminal vesicles ([1]; 72 Hours): BLQ (Below limit of quantitation (<172 ng equivalents [^14C]PER977/g))
Concentration of Radioactivity in Small intestine ([1]; 72 Hours): 1597 ng Equivalents [^14C]DAP/g
Concentration of Radioactivity in Spinal cord ([1]; 72 Hours): BLQ (Below limit of quantitation (<172 ng equivalents [^14C]PER977/g))
Concentration of Radioactivity in Stomach contents ([1]; 72 Hours): BLQ (Below limit of quantitation (<172 ng equivalents [^14C]PER977/g))
Concentration of Radioactivity in Testes ([1]; 72 Hours): BLQ (Below limit of quantitation (<172 ng equivalents [^14C]PER977/g))
Concentration of Radioactivity in Thymus ([1]; 72 Hours): 8365 ng Equivalents [^14C]DAP/g
Concentration of Radioactivity in Urinary bladder ([1]; 72 Hours): 283 ng Equivalents [^14C]DAP/g
Concentration of Radioactivity in Urine ([1]; 72 Hours): 3866 ng Equivalents [^14C]DAP/g
Blood:Serum Ratio ([2]; rat Group 4, 1 hrs, rat 401M): 0.44
Blood:Serum Ratio ([2]; rat Group 4, 8 hrs, rat 402M): 1.32
Blood:Serum Ratio ([2]; rat Group 4, 12 hrs, rat 403M): 1.84
Blood:Serum Ratio ([2]; rat Group 4, 24 hrs, rat 404M): 2.27
Blood:Serum Ratio ([2]; rat Group 4, 72 hrs, rat 405M): 2.53
MTD [3]: 40 mg/kg
MTD [4]: 35 mg/kg
safety profile [5]: excellent safety profile
